Source: ChEMBL document CHEMBL4428125, “8-Substituted 1,3-dimethyltetrahydropyrazino[2,1-f]purinediones: Water-soluble adenosine receptor antagonists and monoamine oxidase B inhibitors” (Bioorg Med Chem, 2016)

Experiments:
Adenosine receptor A2a = Adenosine receptor A2a (Rattus norvegicus, UniProt P30543); test: Displacement of [3H]MSX from A2A receptor in rat brain striatum membranes measured after 30 mins by liquid scintillation counting method; format: cell membranes
[1] = biological target: T1, Amine oxidase [flavin-containing] A (Homo sapiens, UniProt P21397); test: Inhibition of recombinant human MAO-A expressed in baculovirus infected BTI insect cells at 10 uM preincubated for 30 mins followed by addition of p-tyramine as substrate measured over 45 mins by Amplex Red MAO assay relative to control; conditions: 0.75 h
T1 sequence (P21397 whole entry): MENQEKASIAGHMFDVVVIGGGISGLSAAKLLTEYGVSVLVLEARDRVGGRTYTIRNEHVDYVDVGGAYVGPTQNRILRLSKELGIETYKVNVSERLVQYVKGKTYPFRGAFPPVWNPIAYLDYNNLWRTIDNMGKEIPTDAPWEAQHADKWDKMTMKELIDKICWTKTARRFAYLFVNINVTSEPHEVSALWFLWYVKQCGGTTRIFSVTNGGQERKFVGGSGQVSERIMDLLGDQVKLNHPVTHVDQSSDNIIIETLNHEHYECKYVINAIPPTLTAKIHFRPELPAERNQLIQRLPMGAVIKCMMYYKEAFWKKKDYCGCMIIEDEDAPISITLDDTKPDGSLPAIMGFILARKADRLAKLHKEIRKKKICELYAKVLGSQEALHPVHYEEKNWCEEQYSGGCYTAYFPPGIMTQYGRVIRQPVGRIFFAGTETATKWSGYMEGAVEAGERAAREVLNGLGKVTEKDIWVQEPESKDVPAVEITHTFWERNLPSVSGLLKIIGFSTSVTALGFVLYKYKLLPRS

[2] = biological target: T1, Amine oxidase [flavin-containing] A; test: Inhibition of recombinant human MAO-A expressed in baculovirus infected BTI insect cells preincubated for 30 mins followed by addition of p-tyramine as substrate measured over 45 mins by Amplex Red MAO assay
Adenosine receptor A3 = biological target: T2, Adenosine receptor A3 (Homo sapiens, UniProt P0DMS8); test: Displacement of [3H]PSB-11 from human A3 receptor expressed in CHO cell membrane by liquid scintillation counting method relative to control; format: cell membranes
T2 sequence (P0DMS8 whole entry): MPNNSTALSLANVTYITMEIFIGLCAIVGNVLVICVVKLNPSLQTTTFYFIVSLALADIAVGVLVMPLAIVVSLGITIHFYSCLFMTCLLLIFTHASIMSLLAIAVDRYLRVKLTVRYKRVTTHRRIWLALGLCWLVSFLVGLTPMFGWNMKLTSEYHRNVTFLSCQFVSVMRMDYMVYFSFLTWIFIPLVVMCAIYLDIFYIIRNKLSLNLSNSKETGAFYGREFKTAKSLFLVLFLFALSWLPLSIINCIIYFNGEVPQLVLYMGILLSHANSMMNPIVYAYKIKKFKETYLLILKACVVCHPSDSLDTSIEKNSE

[3] = biological target: T3, Adenosine receptor A1 (Rattus norvegicus) (UniProt P25099); test: Displacement of [3H]CCPA from A1 receptor in rat brain cortex membranes at 1.5 uM by liquid scintillation counting method; format: cell membranes
T3 sequence (whole entry): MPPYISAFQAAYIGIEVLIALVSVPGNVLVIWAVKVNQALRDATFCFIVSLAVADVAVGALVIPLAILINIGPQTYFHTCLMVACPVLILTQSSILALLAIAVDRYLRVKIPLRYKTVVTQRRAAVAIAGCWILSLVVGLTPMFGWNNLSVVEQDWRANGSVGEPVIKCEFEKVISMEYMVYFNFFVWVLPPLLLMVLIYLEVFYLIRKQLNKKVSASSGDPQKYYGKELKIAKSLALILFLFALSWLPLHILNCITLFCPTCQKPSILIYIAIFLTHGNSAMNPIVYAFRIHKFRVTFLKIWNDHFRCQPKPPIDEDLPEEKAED

Adenosine receptor A1 = biological target: T4, Adenosine receptor A1 (Rattus norvegicus, UniProt P25099); test: Displacement of [3H]CCPA from A1 receptor in rat brain cortex membranes by liquid scintillation counting method; format: cell membranes
T4 sequence (P25099 whole entry): T3 sequence (whole entry)

[4] = biological target: T5, Adenosine receptor A2b (Homo sapiens) (UniProt P29275); test: Displacement of [3H]PSB-603 from human A2B receptor expressed in CHO cell membrane at 1 uM relative to control; format: cell membranes
T5 sequence (whole entry): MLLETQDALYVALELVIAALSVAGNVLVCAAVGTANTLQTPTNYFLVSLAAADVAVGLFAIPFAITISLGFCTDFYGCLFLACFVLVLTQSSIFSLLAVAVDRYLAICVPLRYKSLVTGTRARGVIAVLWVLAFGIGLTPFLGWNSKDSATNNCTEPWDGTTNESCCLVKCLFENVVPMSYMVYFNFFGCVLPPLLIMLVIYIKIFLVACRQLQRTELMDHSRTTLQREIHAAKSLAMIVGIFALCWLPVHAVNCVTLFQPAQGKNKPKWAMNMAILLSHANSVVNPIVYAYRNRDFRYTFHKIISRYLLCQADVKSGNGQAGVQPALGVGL

[5] = biological target: T6, Amine oxidase [flavin-containing] B (Homo sapiens, UniProt P27338); test: Inhibition of recombinant human MAO-B expressed in baculovirus infected BTI insect cells preincubated for 30 mins followed by addition of p-tyramine as substrate measured over 45 mins by Amplex Red MAO assay
T6 sequence (P27338 whole entry): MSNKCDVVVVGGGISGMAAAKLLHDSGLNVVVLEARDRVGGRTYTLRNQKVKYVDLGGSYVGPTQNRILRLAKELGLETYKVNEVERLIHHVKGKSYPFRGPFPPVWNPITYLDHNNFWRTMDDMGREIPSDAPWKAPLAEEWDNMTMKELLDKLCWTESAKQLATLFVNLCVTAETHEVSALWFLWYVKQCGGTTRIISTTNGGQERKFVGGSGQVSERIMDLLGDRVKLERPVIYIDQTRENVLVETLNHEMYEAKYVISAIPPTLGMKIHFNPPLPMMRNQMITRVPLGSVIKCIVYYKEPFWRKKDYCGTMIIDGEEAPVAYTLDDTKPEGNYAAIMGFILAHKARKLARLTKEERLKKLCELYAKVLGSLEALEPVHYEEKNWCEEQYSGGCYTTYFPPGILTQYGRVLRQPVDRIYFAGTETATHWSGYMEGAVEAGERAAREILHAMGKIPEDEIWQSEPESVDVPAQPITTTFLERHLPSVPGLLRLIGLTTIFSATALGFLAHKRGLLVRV

Adenosine receptor A2b = biological target: T7, Adenosine receptor A2b (Homo sapiens, UniProt P29275); test: Displacement of [3H]PSB-603 from human A2B receptor expressed in CHO cell membrane; format: cell membranes
T7 sequence (P29275 whole entry): T5 sequence (whole entry)

[6] = biological target: T8, Adenosine receptor A3 (Homo sapiens) (UniProt P0DMS8); test: Displacement of [3H]PSB-11 from human A3 receptor expressed in CHO cell membrane at 10 uM by liquid scintillation counting method relative to control relative to control; format: cell membranes
T8 sequence (whole entry): T2 sequence (P0DMS8 whole entry)

[7] = biological target: T6, Amine oxidase [flavin-containing] B; test: Inhibition of recombinant human MAO-B expressed in baculovirus infected BTI insect cells at 10 uM preincubated for 30 mins followed by addition of p-tyramine as substrate measured over 45 mins by Amplex Red MAO assay relative to control; conditions: 0.75 h

Chain of Adenosine receptor A2a (P30543 whole entry): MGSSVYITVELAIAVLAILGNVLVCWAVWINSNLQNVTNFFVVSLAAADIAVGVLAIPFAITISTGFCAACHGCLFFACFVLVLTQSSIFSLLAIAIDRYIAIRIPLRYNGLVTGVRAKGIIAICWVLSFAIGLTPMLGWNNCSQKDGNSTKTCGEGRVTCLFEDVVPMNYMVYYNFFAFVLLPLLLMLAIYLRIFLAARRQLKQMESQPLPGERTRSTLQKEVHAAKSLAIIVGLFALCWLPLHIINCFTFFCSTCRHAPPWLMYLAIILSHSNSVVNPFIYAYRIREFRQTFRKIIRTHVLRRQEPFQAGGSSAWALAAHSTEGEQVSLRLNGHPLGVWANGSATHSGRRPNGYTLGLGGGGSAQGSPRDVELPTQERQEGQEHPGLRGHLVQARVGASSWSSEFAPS

SMILES	Ki (Adenosine receptor A2a)	inhibition at 10 µM [1]	IC50 [2]	Ki (Adenosine receptor A3)	Activity [3]	Ki (Adenosine receptor A1)	Activity [4]	IC50 [5]	Ki (Adenosine receptor A2b)	Activity [6]	inhibition at 10 µM [7]
Cn1c(=O)c2c(nc3n2CCN(CCc2ccc(Cl)c(Cl)c2)C3)n(C)c1=O	2.85 µM	14%	> 10 µM	15 µM	35%	> 1.5 µM	11%	0.802 µM	> 1 µM		
Cn1c(=O)c2c(nc3n2CCN(c2ccc(F)cc2)C3)n(C)c1=O	2.13 µM			> 10 µM	4%	> 1.5 µM	9%	2.23 µM	> 1 µM	24%	
Cn1c(=O)c2c(nc3n2CCN(c2cccc4ccccc24)C3)n(C)c1=O	2.94 µM	16%	> 10 µM	> 10 µM	17%	> 1.5 µM	10%	0.828 µM	> 1 µM	29%	
Cn1c(=O)c2c(nc3n2CCN(CCc2cccc(Cl)c2)C3)n(C)c1=O	1.31 µM	13%	> 10 µM	> 10 µM	14%	> 1.5 µM	21%		> 1 µM	10%	61%
Cn1c(=O)c2c(nc3n2CCN(CCc2c(Cl)cccc2Cl)C3)n(C)c1=O	3.05 µM			> 10 µM	34%	> 1.5 µM	22%	0.932 µM	> 1 µM	10%	
Cn1c(=O)c2c(nc3n2CCN(c2cccc(F)c2)C3)n(C)c1=O	2.92 µM	8%	> 10 µM	> 10 µM	20%	> 1.5 µM	3%	1.5 µM	> 1 µM	18%	
Cn1c(=O)c2c(nc3n2CCN([C@@H]2CCc4ccccc42)C3)n(C)c1=O	5.08 µM			> 10 µM	28%	> 1.5 µM	8%	2.15 µM	> 1 µM	38%	
Cn1c(=O)c2c(nc3n2CCN(CCOc2ccc(Cl)c(Cl)c2)C3)n(C)c1=O	2.42 µM	14%	> 10 µM	> 10 µM		1.25 µM	21%	> 10 µM	> 1 µM	36%	27%
Cn1c(=O)c2c(nc3n2CCN(c2ccccc2)C3)n(C)c1=O	3.83 µM	-1%	> 10 µM	> 10 µM	12%	> 1.5 µM	8%		> 1 µM	32%	61%

The remaining compounds from weak to strong by Ki (Adenosine receptor A2a), led by results:

Ki (Adenosine receptor A2a)	inhibition at 10 µM [1]	IC50 [2]	Ki (Adenosine receptor A3)	Activity [3]	Ki (Adenosine receptor A1)	Activity [4]	IC50 [5]	Ki (Adenosine receptor A2b)	Activity [6]	inhibition at 10 µM [7]	SMILES
9.61 µM	-12%	> 10 µM	> 10 µM	9%	> 1.5 µM	11%	> 10 µM	> 1 µM	43%	39%	Cn1c(=O)c2c(nc3n2CCN(CCc2ccccc2)C3)n(C)c1=O
2.73 µM	11%	> 10 µM	> 10 µM	32%	> 1.5 µM	13%	0.723 µM	> 1 µM	43%		Cn1c(=O)c2c(nc3n2CCN(CCc2ccccc2Cl)C3)n(C)c1=O
2.58 µM			> 10 µM	6%	> 1.5 µM	12%	10 µM	> 1 µM	29%	63%	Cn1c(=O)c2c(nc3n2CCN(CCc2cccc(C(F)(F)F)c2)C3)n(C)c1=O
1.01 µM	3%	> 10 µM	> 10 µM	16%	> 1.5 µM	21%	1.16 µM	> 1 µM	32%		COc1cccc(N2CCn3c(nc4c3c(=O)n(C)c(=O)n4C)C2)c1
